Article PMC5827430, “Oxidation of the FAD cofactor to the 8-formyl-derivative in human electron-transferring flavoprotein” (The Journal of Biological Chemistry, 2018)
Positions count from the first letter of the chain named.

Legend:
[1] = biological target: T1, hETF (human electron-transferring flavoprotein) (Homo sapiens, UniProt P13804+P38117, P38117:E165A); assay: UV-visible absorption; steady-state kinetics of the FAD form; conditions: purified at pH 7.0
T1 construct: gene ETFA; mature heterodimer from E. coli BL21(DE3), pET-28a+ operon; alpha from Gln-20; N-terminal His6 on beta (tag kept)
T1 sequence (P13804 20-333): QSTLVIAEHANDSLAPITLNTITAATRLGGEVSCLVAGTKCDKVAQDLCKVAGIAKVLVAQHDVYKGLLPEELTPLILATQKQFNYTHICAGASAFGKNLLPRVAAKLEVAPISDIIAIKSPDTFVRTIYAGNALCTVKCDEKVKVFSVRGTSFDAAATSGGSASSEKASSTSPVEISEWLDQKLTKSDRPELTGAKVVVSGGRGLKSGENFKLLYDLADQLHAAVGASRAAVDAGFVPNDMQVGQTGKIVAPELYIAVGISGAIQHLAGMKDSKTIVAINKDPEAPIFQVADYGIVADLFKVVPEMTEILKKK
T1 sequence (P38117 1-255 E165A): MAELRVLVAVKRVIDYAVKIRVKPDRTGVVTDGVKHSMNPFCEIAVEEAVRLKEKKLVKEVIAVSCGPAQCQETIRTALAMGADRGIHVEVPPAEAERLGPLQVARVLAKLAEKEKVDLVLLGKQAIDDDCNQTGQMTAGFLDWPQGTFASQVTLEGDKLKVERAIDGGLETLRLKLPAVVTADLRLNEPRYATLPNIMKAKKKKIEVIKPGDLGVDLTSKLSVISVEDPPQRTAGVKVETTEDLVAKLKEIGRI

[2] = biological target: T2, hETF (human electron-transferring flavoprotein) (Homo sapiens, UniProt P13804+P38117, P13804:H286A); assay: HPLC analysis of extracted cofactor; type: binding; conditions: purified at pH 7.0
T2 construct: gene ETFA; mature heterodimer from E. coli BL21(DE3), pET-28a+ operon; alpha from Gln-20; N-terminal His6 on beta (tag kept)
T2 sequence (P13804 20-333 H286A): T1 sequence (P13804 20-333) with H267A
T2 sequence (P38117 1-255): T1 sequence (P38117 1-255 E165A) with A165E

Structure (SMILES): Cc1cc2nc3c(=O)[nH]c(=O)nc-3n(C[C@H](O)[C@H](O)[C@H](O)COP(=O)(O)OP(=O)(O)OC[C@H]3O[C@@H](n4cnc5c(N)ncnc54)[C@H](O)[C@@H]3O)c2cc1C [FAD]
- UV-visible absorption; steady-state kinetics of the FAD form [1]: FAD formylation was absent in the freshly purified variant βE165A
- HPLC analysis of extracted cofactor [2]: the FAD cofactor was bound weakly to the αH286A variant
